These results are taken from patent US20230131899A1, “INHIBITORS OF MICROBIALLY INDUCED AMYLOID” (Axial Therapeutics, Inc., priority 2020, published 2023).

pIC50: −log10 of the molar value. Read-outs that look alike come from different tables or passages of the source. Where only a bound is given, the exact number is not on record here.

In assay [1] the test system is CsgA gene expression (csgBAC promoter-GFP reporter) in E. coli UTI89. As to the kind of experiment: In vitro live cell fluorescent reporter assay of CsgA transcription (Reporter Assay). In kind it is cell-based. The note with it: Escherichia coli; for IC50: read-out: Reporter Assay Abs IC50 (μM), median Abs IC50 in the CsgA reporter assay, N/A = maximum expression reduction is <50% of control. The method in brief: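 Compounds at 0.14–100 μM (1% DMSO final) incubated 20 h at 27 °C in YESCA broth with UTI89 carrying a single-copy GFP reporter under the csgBAC intergenic promoter region, inoculum OD600 0.003. Fluorescence normalized to vehicle wells gave IC50 and 50%-of-vehicle concentration; OD600 reduction >10% flagged growth impact.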

For another assay, the target named is T1, human α-synuclein (Homo sapiens, UniProt P37840).
T1 construct: the full-length gene for untagged human α-synuclein was inserted; made in house; host or cells: E. coli BL21(DE3), plasmid derived from pT7 or pET11a
As to the kind of experiment: Cell-free Thioflavin T assay of α-synuclein aggregation (αSyn ThT Assay). In kind it is biochemical. The following applies: αSyn 50 μM. In a few lines: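 Inhibition is reported as 100% minus background-corrected ThT signal relative to vehicle wells, taken at 36, 47, 48 or 72 h or the last read. Reactions held 50 μM recombinant α-synuclein, 20-100 μM compound, 20-40 μM ThT and 1% DMSO. Incubation was at 37° C., shaken, with a glass bead.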

[2] abbreviates: read-out: Reporter Assay Abs IC50, activity range, class symbol.
Where [3] appears, read: class symbol, compounds 100 μM, read-out: αSyn ThT Assay % inhibition, activity range.
[4] abbreviates: mean percent inhibition relative to DMSO control, compounds 100 μM, read-out: αSyn ThT Assay % inhibition.

As to `CC(C)(C)c1ccc(CCN2CC(C(=O)O)n3c2c(-c2cccc(C(F)(F)F)c2)c(Cc2cccc4ccccc24)c(Cl)c3=O)cc1` (stereo not drawn) [Compound 239, 1-(4-(tert-butyl)phenethyl)-6-chloro-7-(naphthalen-1-ylmethyl)-5-oxo-8-(3-(trifluoromethyl)phenyl)-1,2,3,5-tetrahydroimidazo[1,2-a]pyridine-3-carboxylic acid], the IC50 (as a rule, the concentration at which inhibition is half-maximal) in assay [1] is 0.6 µM. Moreover, the pIC50 (commonly −log10 of the IC50, conventionally taken in molar units) in assay [1] (setting [2]) is above 5.89. In addition, the values for the inhibition at 100 µM on human α-synuclein (setting [3]) and at human α-synuclein (setting [4]) were 31 to 60% and 58%, respectively.

Take `O=C(O)C1CN(CCCCCCN2CC(C(=O)O)n3c(c(-c4cccc(C(F)(F)F)c4)c(Cc4cccc5ccccc45)cc3=O)S2(=O)=O)S(=O)(=O)c2c(-c3cccc(C(F)(F)F)c3)c(Cc3cccc4ccccc34)cc(=O)n21` (racemic) [Compound 043, 2,2′-(hexane-1,6-diyl)bis(8-(naphthalen-1-ylmethyl)-6-oxo-9-(3-(trifluoromethyl)phenyl)-3,4-dihydro-2H,6H-pyrido[1,2-e][1,2,5]thiadiazine-4-carboxylic acid 1,1-dioxide)]: the pIC50 in assay [1] (read-out: Reporter Assay Abs IC50 (activity range), median Abs IC50 in the CsgA reporter assay, class symbol) is above 5.89. Besides, the IC50 in assay [1] is 0.7 µM. Besides, the inhibition (as a rule, the percentage by which the read-out fell short of the control) at 100 µM on human α-synuclein (mean % inhibition of αSyn aggregation relative to DMSO control, compounds at 100 μM, read-out: αSyn ThT Assay % Inhibition) was 72%; at human α-synuclein (compounds at 100 μM, class symbol, read-out: αSyn ThT Assay % Inhibition (activity range)), above 60%.

As to `N#Cc1ccc(CN2CC(C(=O)O)n3c2c(-c2cccc(C(F)(F)F)c2)c(Cc2cccc4ccccc24)c(Cl)c3=O)cc1` (stereo not drawn) [Compound 171, 6-chloro-1-(4-cyanobenzyl)-7-(naphthalen-1-ylmethyl)-5-oxo-8-(3-(trifluoromethyl)phenyl)-1,2,3,5-tetrahydroimidazo[1,2-a]pyridine-3-carboxylic acid], the IC50 in assay [1] was 1.1 µM. The pIC50 in assay [1] (setting [2]) was above 5.89. In addition, the inhibition at 100 µM at human α-synuclein (setting [3]) is 31 to 60%; on human α-synuclein (setting [4]), 32%.

Consider `COc1ccccc1CN1CC(C(=O)O)n2c1c(-c1cccc(C(F)(F)F)c1)c(Cc1cccc3ccccc13)c(Cl)c2=O` (stereo not drawn) [Compound 195, 6-chloro-1-(2-methoxybenzyl)-7-(naphthalen-1-ylmethyl)-5-oxo-8-(3-(trifluoromethyl)phenyl)-1,2,3,5-tetrahydroimidazo[1,2-a]pyridine-3-carboxylic acid], for which the IC50 in assay [1] came out at 1.8 µM. In assay [1] (setting [2]), the pIC50 was 5.35 to 5.89. In addition, the inhibition at 100 µM was 31 to 60% at human α-synuclein (setting [3]) and 45% at human α-synuclein (setting [4]).

`COc1cc(Cc2c(-c3cccc(C(F)(F)F)c3)c3n(c(=O)c2Cl)C(C(=O)O)CN3Cc2ccccc2)c2ccccc2c1` (stereo not drawn) [Compound 234, 1-benzyl-6-chloro-7-((3-methoxynaphthalen-1-yl)methyl)-5-oxo-8-(3-(trifluoromethyl)phenyl)-1,2,3,5-tetrahydroimidazo[1,2-a]pyridine-3-carboxylic acid]: the IC50 in assay [1] is 0.4 µM. For the same compound, the pIC50 in assay [1] (setting [2]) is above 5.89. The inhibition at 100 µM is above 60% on human α-synuclein (setting [3]) and 70% on human α-synuclein (setting [4]).

Consider `COc1cc(Cc2cc(=O)n3c(c2-c2cccc(C(F)(F)F)c2)N(Cc2ccccc2)CC3C(=O)O)c2ccccc2c1` (stereo not drawn) [Compound 233, 1-benzyl-7-((3-methoxynaphthalen-1-yl)methyl)-5-oxo-8-(3-(trifluoromethyl)phenyl)-1,2,3,5-tetrahydroimidazo[1,2-a]pyridine-3-carboxylic acid], for which the IC50 in assay [1] came out at 0.6 µM. For the same compound, in assay [1] (setting [2]), the pIC50 was above 5.89. In addition, the inhibition at 100 µM at human α-synuclein (setting [3]) is 31 to 60%; at human α-synuclein (setting [4]), 50%.

Turning to `O=C(O)C1CN(CCc2cccc3ccccc23)c2c(-c3cccc(C(F)(F)F)c3)c(Cc3cccc4ccccc34)c(Cl)c(=O)n21` (stereo not drawn) [Compound 238, 6-chloro-1-(2-(naphthalen-1-yl)ethyl)-7-(naphthalen-1-ylmethyl)-5-oxo-8-(3-(trifluoromethyl)phenyl)-1,2,3,5-tetrahydroimidazo[1,2-a]pyridine-3-carboxylic acid], the IC50 in assay [1] turned out to be 0.7 µM. In assay [1] (setting [2]), the pIC50 is above 5.89. The results for the inhibition at 100 µM on human α-synuclein (setting [3]) and at human α-synuclein (setting [4]) were above 60% and 94%, respectively.

Turning to `O=C(O)C1CN(Cc2ccccc2)c2c(-c3cccc(C(F)(F)F)c3)c(Cc3ccc(Cl)c4ccccc34)cc(=O)n21` (stereo not drawn) [Compound 232, 1-benzyl-7-((4-chloronaphthalen-1-yl)methyl)-5-oxo-8-(3-(trifluoromethyl)phenyl)-1,2,3,5-tetrahydroimidazo[1,2-a] pyridine-3-carboxylic acid], the IC50 in assay [1] was 0.7 µM. In assay [1] (setting [2]), the negative-log IC50 (pIC50) is above 5.89. For the same compound, the inhibition at 100 µM on human α-synuclein (setting [3]) is 11 to 30%; on human α-synuclein (setting [4]) it was 23%.

For `N#Cc1ccccc1CN1CC(C(=O)O)n2c1c(-c1cccc(C(F)(F)F)c1)c(Cc1cccc3ccccc13)c(Cl)c2=O` (stereo not drawn) [Compound 165, 6-chloro-1-(2-cyanobenzyl)-7-(naphthalen-1-ylmethyl)-5-oxo-8-(3-(trifluoromethyl)phenyl)-1,2,3,5-tetrahydroimidazo[1,2-a]pyridine-3-carboxylic acid], the 50% inhibitory concentration (IC50) in assay [1] worked out at 0.8 µM. Moreover, the pIC50 in assay [1] (setting [2]) was above 5.89. For the same compound, the inhibition at 100 µM at human α-synuclein (setting [3]) is 11 to 30%; at human α-synuclein (setting [4]) it was 30%.
